Laboratory results from patent US12546785B2, “IL-17F and IL-17A-specific capture agents, compositions, and methods of using and making” (Regeneron Pharmaceuticals, Inc., priority 2017, dated 2026).
Numbered stars: 1 amine (or outer) side, 2 acyl side, 3 side chain; on linkers, the order of the positions; unused ones are H or OH. Bridge positions count the residues as written; N and C are the ends. Square brackets hold non-standard residues; d marks the D form. Triazole bridges read from a SMILES are 1,4-linked. Peptide text beside a SMILES is read from it. * marks the point of attachment. ξ: configuration not given here. Biotinyl(3aR,4R,6aS) = O=C1N[C@@H]2[C@@H](CS[C@@H]2CCCCC(=O)*)N1; Biotin = O=C1N[C@H]2[C@H](CS[C@H]2CCCCC(=O)*)N1; dLys(N3) = [N-]=[N+]=NCCCC[C@@H](N)C(=O)O; Lys(N3) = [N-]=[N+]=NCCCC[C@H](N)C(=O)O; Ethylenediamine = C(CN[*:2])N[*:1]; PEG5 = NCCOCCOCCOCCOCCOCCC(=O)O; ξY = NC(Cc1ccc(O)cc1)C(=O)O; AEEEA = NCCOCCOCCOCC(=O)O; ξR = N=C(N)NCCCC(N)C(=O)O; Pra = C#CC[C@H](N)C(=O)O; ξPra = C#CCC(N)C(=O)O; ξK = NCCCCC(N)C(=O)O; PEG1 = NCCOCCC(=O)O

Tests used:
[1] = biological target: T1, recombinant human IL-17A protein (Homo sapiens, UniProt Q16552); test: ELISA affinity against IL-17A; format: binding
T1 construct: His tag
T1 sequence (Q16552 24-155): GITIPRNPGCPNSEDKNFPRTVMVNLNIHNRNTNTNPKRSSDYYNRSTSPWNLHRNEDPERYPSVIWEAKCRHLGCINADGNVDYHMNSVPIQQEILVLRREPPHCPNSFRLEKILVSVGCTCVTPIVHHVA
Experimental: The affinity of macrocycle LA3 (SEQ ID NO:44) against recombinant human IL-17A protein was determined by ELISA.

[2] = biological target: Plasmodium falciparum Histidine Rich Protein-2 (Pf.HRP-2) (Plasmodium falciparum, UniProt P05227); test: biochemical; format: binding

CC(C)C[C@H]1NC(=O)[C@@H](CCCNC(=N)N)NC(=O)[C@@H](Cc2ccccc2)NC(=O)[C@@H](Cc2c[nH]cn2)NC(=O)[C@@H](CCCNC(=N)N)NC(=O)[C@@H](NC(=O)COCCOCCOCCNC(=O)CCCC[C@@H]2SC[C@@H]3NC(=O)N[C@@H]32)Cc2cn(nn2)CCCC[C@@H](C(N)=O)NC1=O [LA3] ({Biotin-AEEEA}-[Pra][dR][dH][dF][dR][dL][Lys(N3)]-NH2; triazole 1-7)
EC50 [1]: 0.0045 ± 0.0004 µM

N=C(N)NCCCC1NC(=O)[C@@H](Cc2ccc(O)cc2)NC(=O)[C@@H](Cc2ccc(O)cc2)NC(=O)C(CCCCN)NC(=O)C(Cc2ccc(O)cc2)NC(=O)C(N)Cc2cn(nn2)CCCC[C@H](C(=O)NCCOCCC(=O)NC2Cc3cn(nn3)CCCC[C@H](C(=O)NCCOCCOCCOCCOCCOCCC(=O)NCCNC(=O)CCCC[C@H]3SC[C@H]4NC(=O)N[C@H]43)NC(=O)C(CCCNC(=N)N)NC(=O)[C@@H](Cc3ccc(O)cc3)NC(=O)[C@@H](Cc3ccc(O)cc3)NC(=O)C(CCCCN)NC(=O)C(Cc3ccc(O)cc3)NC2=O)NC1=O (stereo partly drawn) [linked biligand] (H-[ξPra][ξY][ξK][dY][dY][ξR][dLys(N3)][PEG1][ξPra][ξY][ξK][dY][dY][ξR][dLys(N3)][PEG5]-{Ethylenediamine-Biotinyl(3aR,4R,6aS)}; triazole 1-7, 9-15)
EC50 [2]: 0.0208 ± 0.0013 µM

CC(C)C[C@@H]1NC(=O)[C@H](CC(=O)O)NC(=O)[C@H](C(C)C)NC(=O)[C@H](CC(N)=O)NC(=O)[C@H](Cc2c[nH]c3ccccc23)NC(=O)CNC(=O)[C@](C)(NC(=O)[C@@H](N)CCCNC(=N)N)CCCCCC/C=C/CCC[C@@](C)(C(=O)N[C@@H](CCCCNC(=O)CCCC[C@@H]2SC[C@@H]3NC(=O)N[C@@H]32)C(=O)N[C@@H](CNC(=O)Cn2nncc2C[C@H](N)C(=O)N2CCC[C@@H]2C(=O)NCC(=O)N[C@H](CC(C)C)C(=O)N[C@H](CC(C)C)C(=O)N[C@H]2Cc3cn(nn3)CCCC[C@@H](C(N)=O)NC(=O)[C@H](CCCNC(=N)N)NC(=O)[C@H](Cc3ccc(O)cc3)NC(=O)[C@H](Cc3ccc(O)cc3)NC(=O)[C@H](CCCCN)NC(=O)[C@H](Cc3ccc(O)cc3)NC2=O)C(N)=O)NC1=O [cy(YKYYR)-linker-cy(GWNVDL)]
improvement over the better of the two ligand components ([2]; Pf.HRP-2): 100 fold
